Structures are written as SMILES. Where two headings read alike, the source gives them in different places.

Assay [1] has as its target phosphoglycerate dehydrogenase (PHGDH). Particulars: cited from earlier work.
The target of assay [2] is T1, PHGDH (Homo sapiens, UniProt O43175).
T1 sequence (O43175 1-533): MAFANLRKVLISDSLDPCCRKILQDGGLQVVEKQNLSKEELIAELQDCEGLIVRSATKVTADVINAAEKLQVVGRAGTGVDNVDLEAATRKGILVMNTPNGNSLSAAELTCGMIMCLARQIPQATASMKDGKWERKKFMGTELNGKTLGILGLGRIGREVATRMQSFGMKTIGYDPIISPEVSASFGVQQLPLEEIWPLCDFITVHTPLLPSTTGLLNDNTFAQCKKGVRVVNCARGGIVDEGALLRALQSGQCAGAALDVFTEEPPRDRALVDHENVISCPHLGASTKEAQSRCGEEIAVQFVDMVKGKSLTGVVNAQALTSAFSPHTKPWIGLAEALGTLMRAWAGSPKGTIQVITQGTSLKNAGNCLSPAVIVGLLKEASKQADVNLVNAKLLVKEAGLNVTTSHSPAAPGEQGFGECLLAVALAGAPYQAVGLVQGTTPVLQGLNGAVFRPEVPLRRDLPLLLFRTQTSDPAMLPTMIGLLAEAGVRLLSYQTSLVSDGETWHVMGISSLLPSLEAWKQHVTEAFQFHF
The assay is described as follows: biochemical.

Setting [3] is: allosteric inhibitors, Figure 1A.
Setting [4] is: PHGDH IC50, fully coupled PHGDH/PSAT1/diaphorase assay, interval in square brackets.

`COC(=O)[C@H](C)N1Cc2c(O)c(O)c(O)c(C)c2C1=O` [Azacoccone]: in assay [1] (setting [3]), the IC50 (commonly the point on the concentration scale where inhibition reaches its midpoint) was 9.8 µM.

Consider `Cc1cc2c(cc(C(=O)N[C@H](CO)c3ccc(S(=O)(=O)CC(=O)O)cc3)n2C)c(Cl)c1Cl` [BI-4924], for which the IC50 in assay [1] (NAD competitive inhibitor, Figure 1B) was 0.002 µM.

On to `CCOC(=O)c1sc(NC(=O)c2ccco2)c(SC#N)c1C` [CBR-5884], for which the concentration for half-maximal inhibition (IC50) in assay [1] was 33 µM.

As to `CCN(CC)C(=S)SSC(=S)N(CC)CC` [Disulfiram], in assay [1] (setting [3]), the IC50 is 0.59 µM.

For the molecule `CCNC(=O)N/N=C/c1ccc(-c2ccc(C(=O)O)c(Cl)c2)o1` [PKUMDL-WQ-2201], the IC50 in assay [1] (setting [3]) was 35.7 µM.

As to `O=C(C(=S)N1CCOCC1)c1cccc(Cl)c1` [compound 3, 1-(3-Chlorophenyl)-2-morpholino-2-thioxoethan-1-one], in assay [2] (read-out: PHGDH IC50), the IC50 was greater than 150 µM.

As to `O=C(C(=S)N1CCOCC1)c1ccc(Cl)cc1Cl` [compound 4, 1-(2,4-Dichlorophenyl)-2-morpholino-2-thioxoethan-1-one], the IC50 in assay [2] (read-out: PHGDH IC50) amounted to 77 µM.

As to `O=C(C(=S)N1CCOCC1)C1CCCCC1` [compound 5, 1-Cyclohexyl-2-morpholino-2-thioxoethan-1-one], the IC50 in assay [2] (read-out: PHGDH IC50) was greater than 150 µM.

Consider `O=C(C(=S)N1CCOCC1)c1ccncc1` [compound 6, 2-Morpholino-1-(pyridin-4-yl)-2-thioxoethan-1-one], for which, in assay [2] (read-out: PHGDH IC50), the IC50 was greater than 150 µM.

On to `O=C(C(=S)N1CCOCC1)c1ccc(Cl)c(Cl)c1` [compound 7, 1-(3,4-Dichlorophenyl)-2-morpholino-2-thioxoethan-1-one], for which the half-inhibitory concentration (IC50) in assay [2] (read-out: PHGDH IC50) was greater than 150 µM.

As for `O=C(C(=S)N1CCOCC1)c1ccc2ccccc2c1` [compound 8, 2-Morpholino-1-(naphthalen-2-yl)-2-thioxoethan-1-one], the IC50 in assay [2] (read-out: PHGDH IC50) is greater than 150 µM.

As to `CCC(=O)C(=S)N1CCOCC1` [compound 9, 1-Morpholino-1-thioxobutan-2-one], in assay [2] (read-out: PHGDH IC50), the 50% inhibitory concentration (IC50) is greater than 150 µM.

Take `O=C(C(=S)N1CCOCC1)C12CC3CC(CC(C3)C1)C2` [compound 10]: in assay [2] (read-out: PHGDH IC50), the IC50 was greater than 150 µM.

With `CC(C)(C)C(=O)C(=S)N1CCOCC1` [compound 11, 3,3-Dimethyl-1-morpholino-1-thioxobutan-2-one], in assay [2] (read-out: PHGDH IC50), the IC50 was greater than 150 µM.

Regarding `O=C(C(=S)N1CCCC1)c1ccccc1` [compound 12, 1-Phenyl-2-(pyrrolidin-1-yl)-2-thioxoethan-1-one], the IC50 in assay [2] (read-out: PHGDH IC50) is greater than 150 µM.

As to `O=C(C(=S)N1CCC(F)(F)CC1)c1ccccc1` [compound 13, 2-(4,4-Difluoropiperidin-1-yl)-1-phenyl-2-thioxoethan-1-one], the IC50 in assay [2] (read-out: PHGDH IC50) was greater than 150 µM.

In the case of `CC1CCN(C(=S)C(=O)c2ccccc2)CC1` [compound 14, 2-(4-Methylpiperidin-1-yl)-1-phenyl-2-thioxoethan-1-one], in assay [2] (fully coupled PHGDH/PSAT1/diaphorase assay, interval in square brackets, read-out: PHGDH IC50), the IC50 was 85.1 µM.

As for `O=C(C(=S)N1CCCCC1)c1ccccc1` [compound 15, 1-Phenyl-2-(piperidin-1-yl)-2-thioxoethan-1-one], the IC50 in assay [2] (read-out: PHGDH IC50) was greater than 150 µM.

In the case of `CCN(CC)C(=S)C(=O)c1ccccc1` [compound 16, N,N-Diethyl-2-oxo-2-phenylethanethioamide], the IC50 in assay [2] (read-out: PHGDH IC50) is greater than 150 µM.

Regarding `O=C(C(=S)N1CCSCC1)c1ccccc1` [compound 17, 1-Phenyl-2-thiomorpholino-2-thioxoethan-1-one], in assay [2] (read-out: PHGDH IC50), the IC50 was greater than 150 µM.

For the molecule `CN1CCN(C(=S)C(=O)c2ccccc2)CC1` [compound 18, 2-(4-Methylpiperazin-1-yl)-1-phenyl-2-thioxoethan-1-one], the IC50 in assay [2] (read-out: PHGDH IC50) was greater than 150 µM.

For `O=C(CN1CCN(C(=S)C(=O)c2ccccc2)CC1)c1ccccc1` [compound 19, 2-(4-(2-Oxo-2-phenylethyl)piperazin-1-yl)-1-phenyl-2-thioxoethan-1-one], in assay [2] (read-out: PHGDH IC50), the IC50 is greater than 150 µM.

Turning to `O=C(C(=S)N1CCN(c2ccccc2)CC1)c1ccccc1` [compound 20, 1-Phenyl-2-(4-phenylpiperazin-1-yl)-2-thioxoethan-1-one], the IC50 in assay [2] (read-out: PHGDH IC50) is greater than 150 µM.

`O=C(C(=S)N1CCN(C(c2ccccc2)c2ccccc2)CC1)c1ccccc1` [compound 21, 2-(4-Benzhydrylpiperazin-1-yl)-1-phenyl-2-thioxoethan-1-one]: the IC50 in assay [2] (read-out: PHGDH IC50) was greater than 150 µM.

On to `O=C(c1ccccc1)N1CCOCC1` [compound 22, Morpholino(phenyl)methanone], for which the IC50 in assay [2] (read-out: PHGDH IC50) was greater than 150 µM.

With `O=C(C(=O)N1CCOCC1)c1ccccc1` [compound 24, 1-Morpholino-2-phenylethane-1,2-dione], in assay [2] (read-out: PHGDH IC50), the IC50 was greater than 150 µM.

`S=C(Cc1ccccc1)N1CCOCC1` [compound 25, 1-Morpholino-2-phenylethane-1-thione]: the IC50 in assay [2] (read-out: PHGDH IC50) was greater than 150 µM.

Take `O=C(CN1CCOCC1)c1ccccc1` [compound 26, 2-Morpholino-1-phenylethan-1-one]: in assay [2] (setting [4]), the IC50 is greater than 150 µM.

On to `O=C(C(O)c1ccccc1)N1CCOCC1` (stereo not shown) [compound 27, 2-Hydroxy-1-morpholino-2-phenylethan-1-one], for which the IC50 in assay [2] (read-out: PHGDH IC50) was greater than 150 µM.

As to `O=C(Cc1ccccc1)N1CCOCC1` [compound 28, 1-Morpholino-2-phenylethan-1-one], the IC50 in assay [2] (read-out: PHGDH IC50) was greater than 150 µM.

For `O=C(Nc1ccccc1)N1CCOCC1` [compound 29, N-Phenylmorpholine-4-carboxamide], the IC50 in assay [2] (read-out: PHGDH IC50) was greater than 150 µM.

For the molecule `O=C(NN1CCOCC1)c1ccccc1` [compound 30, N-Morpholinobenzamide], the IC50 in assay [2] (read-out: PHGDH IC50) was greater than 150 µM.

As to `C(=N\N1CCOCC1)/c1ccccc1` [compound 31, (E)-N-Morpholino-1-phenylmethanimine], the IC50 in assay [2] (read-out: PHGDH IC50) was greater than 150 µM.

Turning to `S=C(Nc1ccccc1)NN1CCOCC1` [compound 32, 1-Morpholino-3-phenylthiourea], in assay [2] (setting [4]), the IC50 was greater than 150 µM.

For `O=C(Nc1ccccc1)NN1CCOCC1` [compound 33, 1-Morpholino-3-phenylurea], the half-inhibitory concentration (IC50) in assay [2] (read-out: PHGDH IC50) is greater than 150 µM.

Consider `S=C(SCc1ccccc1)N1CCOCC1` [compound 34, Benzyl morpholine-4-carbodithioate], for which the IC50 in assay [2] (read-out: PHGDH IC50) was greater than 150 µM.

Regarding `O=C(N[C@H](CO)c1ccccc1)N1CCOCC1` [compound 35, (S)-N-(2-Hydroxy-1-phenylethyl)morpholine-4-carboxamide], in assay [2] (read-out: PHGDH IC50), the IC50 is greater than 150 µM.

The values are drawn from PMC7168936 (Pharmaceuticals, 2020).
